Experimental data taken from patent US9850283B2, “Macrocyclic inhibitors of the PD-1/PD-L1 and CD80(B7-1)/PD-L1 protein/protein interactions” (BRISTOL-MYERS SQUIBB COMPANY, priority 2013, dated 2017).
Where two headings read alike, the source gives them in different places. Positions of bridges follow the written chain, without caps; N, C: chain ends. Non-standard residues stand in square brackets, D forms with d. Residues, ends and D or L forms follow the SMILES beside them. ξ: configuration not given here. Pro(trans-4-Ph) = O=C(O)[C@@H]1C[C@@H](c2ccccc2)CN1; Phe(3,4,5-F3) = N[C@@H](Cc1cc(F)c(F)c(F)c1)C(=O)O; Phe(4-Me) = Cc1ccc(C[C@H](N)C(=O)O)cc1; Pro(5S-Me) = C[C@H]1CC[C@@H](C(=O)O)N1; 2Nal = N[C@@H](Cc1ccc2ccccc2c1)C(=O)O; d(cisHyp) = O=C(O)[C@H]1C[C@@H](O)CN1; Bta = N[C@@H](Cc1csc2ccccc12)C(=O)O; Hyp = O=C(O)[C@@H]1C[C@@H](O)CN1; NMeF = CN[C@@H](Cc1ccccc1)C(=O)O; dHyp = O=C(O)[C@H]1C[C@H](O)CN1; NMeNle = CCCC[C@H](NC)C(=O)O; NMeM = CN[C@@H](CCSC)C(=O)O; dPip = O=C(O)[C@H]1CCCCN1; NMeA = CN[C@@H](C)C(=O)O; Orn = NCCC[C@H](N)C(=O)O; Dab = NCC[C@H](N)C(=O)O; Dap = NC[C@H](N)C(=O)O; ξC = NC(CS)C(=O)O; Sar = CNCC(=O)O

Tests used:
[1] = target: T1, LK35.2-hPD-L1 cells / PE-labeled PD-1-Ig (Homo sapiens, UniProt Q9NZQ7); assay: LK35.2-hPD-L1 cell binding high-content screening assay; format: cell-based; settings: cluster symbol, read-out: CBA IC50 cluster
T1 construct: expressed in transfected cells; host or cells: LK35.2 mouse B cell line
How it was run: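 Readout: high-content imaging of PE-PD-1-Ig bound to LK35.2-hPD-L1 cells. Cells plated overnight (RPMI/10% FCS); compound + 1 nM PE-PD-1-Ig, 1 h, 37 °C; 3× dPBS wash before imaging.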

Human PD-L1/PD-1 = target: T2, Human PD-L1/PD-1 (Homo sapiens, UniProt Q9NZQ7); assay: HTRF PD-1-Ig/PD-L1-His binding assay (human PD-L1); settings: cluster symbol; read-out: HTRF IC50 cluster
T2 construct: made in house; host or cells: HEK293T
How it was run: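 Soluble Fc-fused PD-1 and His-tagged PD-L1 (truncated before the transmembrane region) were combined in dPBS with 0.1% (w/v) BSA and 0.05% (v/v) Tween-20. Binding was read by HTRF using europium cryptate anti-Ig antibody (1 nM final) and APC anti-His antibody (20 nM final).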

[2] = cell line of CBA not given (LK35.2-hPD-L1 or 293T-hPD-L1)
[3] = cell binding assay, cell line not given

T2 sequence (Q9NZQ7 with tags, fused parts or gaps): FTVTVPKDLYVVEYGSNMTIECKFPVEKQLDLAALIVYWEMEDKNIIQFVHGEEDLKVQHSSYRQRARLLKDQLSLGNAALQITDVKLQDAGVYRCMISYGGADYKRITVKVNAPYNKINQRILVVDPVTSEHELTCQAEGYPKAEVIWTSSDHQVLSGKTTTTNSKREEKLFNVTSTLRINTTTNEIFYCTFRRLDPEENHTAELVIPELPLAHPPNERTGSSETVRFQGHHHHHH
T1 sequence (Q9NZQ7 19-290): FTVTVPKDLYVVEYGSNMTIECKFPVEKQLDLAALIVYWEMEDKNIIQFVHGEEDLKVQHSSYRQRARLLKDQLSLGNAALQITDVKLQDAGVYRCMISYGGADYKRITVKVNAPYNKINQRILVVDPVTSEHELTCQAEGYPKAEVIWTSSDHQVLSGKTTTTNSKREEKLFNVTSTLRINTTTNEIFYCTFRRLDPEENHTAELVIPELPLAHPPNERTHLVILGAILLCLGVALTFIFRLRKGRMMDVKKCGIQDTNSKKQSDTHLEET

Structure (SMILES)	IC50 [1, 2] [nM]	IC50 (Human PD-L1/PD-1) [nM]	IC50 [1, 3] [nM]
CCCC[C@H]1C(=O)N(C)CC(=O)N[C@@H](CC(=O)O)C(=O)N[C@@H](C(C)C)C(=O)N(C)[C@@H](Cc2ccccc2)C(=O)N[C@@H](Cc2ccc(O)cc2)C(=O)N(C)CC(=O)N[C@@H](Cc2c[nH]c3ccccc23)C(=O)N[C@@H](Cc2ccc(O)cc2)C(=O)N[C@@H](Cc2ccc(C)cc2)C(=O)N[C@H](C(=O)NCC(N)=O)CSCC(=O)N[C@@H](Cc2ccccc2)C(=O)N(C)[C@@H](Cc2ccccc2)C(=O)N1C [Example 3107] ({CH2CO}-F[NMeF][NMeNle][Sar]DV[NMeF]Y[Sar]WY[Phe(4-Me)]CG-NH2; thioether N-13)	4.78 to 72.9	6.76 to 30.3	
CCCC[C@H]1C(=O)N(C)[C@@H](CCCC)C(=O)N[C@@H](CCCNC(=N)N)C(=O)N[C@H](C(=O)NCC(N)=O)CSCC(=O)N[C@@H](Cc2ccccc2)C(=O)N(C)[C@@H](C)C(=O)N[C@@H](CC(N)=O)C(=O)N2CCC[C@H]2C(=O)N[C@@H](Cc2cnc[nH]2)C(=O)N[C@@H](CCC(N)=O)C(=O)N(C)CC(=O)N[C@@H](Cc2c[nH]c3ccccc23)C(=O)N[C@@H](CO)C(=O)N[C@@H](Cc2c[nH]c3ccccc23)C(=O)N1C [Example 6006] ({CH2CO}-F[NMeA]NPHQ[Sar]WSW[NMeNle][NMeNle]RCG-NH2; thioether N-14)		6.76 to 30.3	4.78 to 72.9
CCCC[C@H]1C(=O)N(C)[C@@H](CCSC)C(=O)N[C@@H](C)C(=O)NC(C(=O)NCC(N)=O)CSCC(=O)N[C@@H](Cc2ccc(O)cc2)C(=O)N(C)[C@@H](C)C(=O)N[C@@H](CC(N)=O)C(=O)N2CCC[C@H]2C(=O)N[C@@H](CN)C(=O)N[C@@H](CC(C)C)C(=O)N2C[C@H](O)C[C@H]2C(=O)N[C@@H](Cc2c[nH]c3ccccc23)C(=O)N[C@@H](CO)C(=O)N[C@@H](Cc2c[nH]c3ccccc23)C(=O)N1C (stereo partly drawn) [Example 9087]		0.385 to 6.74	0.158 to 4.71
CCCC[C@H]1C(=O)N(C)[C@@H](CCCC)C(=O)N[C@@H](CCCNC(=N)N)C(=O)NC(C(=O)NCC(N)=O)CSCC(=O)N[C@@H](Cc2ccc(O)cc2)C(=O)N(C)[C@@H](C)C(=O)N[C@@H](CC(N)=O)C(=O)N2[C@@H](C)CC[C@H]2C(=O)N[C@@H](Cc2cnc[nH]2)C(=O)N[C@@H](CC(C)C)C(=O)N2CCC[C@H]2C(=O)N[C@@H](Cc2c[nH]c3ccccc23)C(=O)N[C@@H](CO)C(=O)N[C@@H](Cc2c[nH]c3ccccc23)C(=O)N1C (stereo partly drawn) [Example 9017] ({CH2CO}-Y[NMeA]N[Pro(5S-Me)]HLPWSW[NMeNle][NMeNle]R[ξC]G-NH2; thioether N-14)		6.76 to 30.3	4.78 to 72.9
CCCC[C@H]1C(=O)N2C[C@@H](O)C[C@@H]2C(=O)N[C@@H](CC(N)=O)C(=O)N[C@@H](C(C)C)C(=O)N(C)[C@@H](Cc2ccccc2)C(=O)N[C@@H](Cc2ccc(O)cc2)C(=O)N2CCCC[C@@H]2C(=O)N[C@@H](Cc2c[nH]c3ccccc23)C(=O)N[C@@H](Cc2ccc(O)cc2)C(=O)N[C@@H](CCCN)C(=O)N[C@H](C(=O)NCC(N)=O)CSCC(=O)N[C@@H](Cc2cc(F)c(F)c(F)c2)C(=O)N(C)[C@@H](Cc2ccccc2)C(=O)N1C [Example 3613] ({CH2CO}-[Phe(3,4,5-F3)][NMeF][NMeNle][dHyp]NV[NMeF]Y[dPip]WY[Orn]CG-NH2; thioether N-13)		0.385 to 6.74	0.158 to 4.71
CCCC[C@H]1C(=O)N(C)[C@@H](CCCC)C(=O)N[C@@H](C)C(=O)N[C@H](C(N)=O)CSCC(=O)N[C@@H](Cc2ccc(O)cc2)C(=O)N(C)[C@@H](C)C(=O)N[C@@H](CC(=O)O)C(=O)N2CCC[C@H]2C(=O)N[C@@H](Cc2cnc[nH]2)C(=O)N[C@@H](CCCN)C(=O)N2C[C@H](O)C[C@H]2C(=O)N[C@@H](Cc2c[nH]c3ccccc23)C(=O)N[C@@H](CO)C(=O)N[C@@H](Cc2c[nH]c3ccccc23)C(=O)N1C [Example 1231] ({CH2CO}-Y[NMeA]DPH[Orn][Hyp]WSW[NMeNle][NMeNle]AC-NH2; thioether N-14)	0.158 to 4.71	0.385 to 6.74	
CCCC[C@H]1C(=O)N2C[C@H](O)C[C@@H]2C(=O)N[C@@H](CC(=O)O)C(=O)N[C@@H](C(C)C)C(=O)N(C)[C@@H](Cc2ccccc2)C(=O)N[C@@H](Cc2ccc(O)cc2)C(=O)N(C)CC(=O)N[C@@H](Cc2c[nH]c3ccccc23)C(=O)N[C@@H](Cc2ccc(O)cc2)C(=O)N[C@@H](CC(C)C)C(=O)N[C@H](C(=O)NCC(N)=O)CSCC(=O)N[C@@H](Cc2ccccc2)C(=O)N(C)[C@@H](Cc2ccccc2)C(=O)N1C [Example 3575] ({CH2CO}-F[NMeF][NMeNle][d(cisHyp)]DV[NMeF]Y[Sar]WYLCG-NH2; thioether N-13)		0.385 to 6.74	0.158 to 4.71
CCCC[C@H]1C(=O)N(C)CC(=O)N[C@@H](CC(=O)O)C(=O)N[C@@H](C(C)C)C(=O)N(C)[C@@H](Cc2ccccc2)C(=O)N[C@@H](Cc2ccc(O)cc2)C(=O)N(C)CC(=O)N[C@@H](Cc2c[nH]c3ccccc23)C(=O)N[C@@H](Cc2ccc3ccccc3c2)C(=O)N[C@@H](CC(C)C)C(=O)N[C@H](C(=O)NCC(N)=O)CSCC(=O)N[C@@H](Cc2ccccc2)C(=O)N(C)[C@@H](Cc2ccccc2)C(=O)N1C [Example 3538] ({CH2CO}-F[NMeF][NMeNle][Sar]DV[NMeF]Y[Sar]W[2Nal]LCG-NH2; thioether N-13)		> 30.5	> 74.3
CCCC[C@H]1C(=O)N(C)[C@@H](CCCC)C(=O)N[C@@H](CCCNC(=N)N)C(=O)N[C@H](C(=O)NCC(N)=O)CSCC(=O)N[C@@H](Cc2ccc(O)cc2)C(=O)N(C)[C@@H](C)C(=O)N[C@@H](CC(N)=O)C(=O)N2CCC[C@H]2C(=O)N[C@@H](Cc2cnc[nH]2)C(=O)N[C@@H](CC(C)C)C(=O)N2CC(F)(F)C[C@H]2C(=O)N[C@@H](Cc2c[nH]c3ccccc23)C(=O)N[C@@H](CO)C(=O)N[C@@H](Cc2c[nH]c3ccccc23)C(=O)N1C [Example 1126]	0.158 to 4.71	6.76 to 30.3	
CCCC[C@H]1C(=O)N(C)[C@@H](CCCC)C(=O)N[C@@H](CCCNC(=N)N)C(=O)N[C@H](C(=O)NCC(N)=O)CSCC(=O)N[C@@H](Cc2ccccc2)C(=O)N(C)[C@@H](C)C(=O)N[C@@H](CC(N)=O)C(=O)N2CCC[C@H]2C(=O)N[C@@H](CCCCN)C(=O)N[C@@H](CC(C)C)C(=O)N(C)CC(=O)N[C@@H](Cc2c[nH]c3ccccc23)C(=O)N[C@@H](CO)C(=O)N[C@@H](Cc2c[nH]c3ccccc23)C(=O)N1C [Example 1077] ({CH2CO}-F[NMeA]NPKL[Sar]WSW[NMeNle][NMeNle]RCG-NH2; thioether N-14)	> 74.3	6.76 to 30.3	
CCCC[C@H]1C(=O)N(C)CC(=O)N[C@@H](CC(=O)O)C(=O)N[C@@H](C(C)C)C(=O)N(C)[C@@H](Cc2ccccc2)C(=O)N[C@@H](Cc2ccc(O)cc2)C(=O)N(C)CC(=O)N[C@@H](Cc2c[nH]c3ccccc23)C(=O)N[C@@H](Cc2ccc(O)cc2)C(=O)N[C@@H](CC(C)C)C(=O)N[C@H](C(=O)NCC(N)=O)CSCC(=O)N[C@@H](Cc2ccccc2)C(=O)N(C)[C@@H](Cc2ccc(O)cc2)C(=O)N1C [Example 3059] (HELM PEPTIDE1{[O=C(C[*:3])[*:2]].F.[meY].[CCCC[C@@H](C(=O)[*:2])N(C)[*:1]].[Sar].D.V.[meF].Y.[Sar].W.Y.L.C.G.[am]}$PEPTIDE1,PEPTIDE1,1:R3-14:R3$$$V2.0)	4.78 to 72.9	6.76 to 30.3	
CCCC[C@H]1C(=O)N(C)CC(=O)N[C@@H](CC(=O)O)C(=O)N[C@@H](C(C)C)C(=O)N(C)[C@@H](Cc2ccccc2)C(=O)N[C@@H](Cc2ccc(O)cc2)C(=O)N(C)CC(=O)N[C@@H](Cc2c[nH]c3ccccc23)C(=O)N[C@@H](Cc2ccc(O)cc2)C(=O)N[C@@H](CC(C)C)C(=O)N[C@H](C(=O)NCC(N)=O)CSCC(=O)N[C@@H](Cc2ccc(OC)cc2)C(=O)N(C)[C@@H](Cc2ccccc2)C(=O)N1C [Example 3089] ({CH2CO}-Y(Me)[NMeF][NMeNle][Sar]DV[NMeF]Y[Sar]WYLCG-NH2; thioether N-13)	> 74.3	> 30.5	
CCCC[C@H]1C(=O)N(C)[C@@H](CCCC)C(=O)N[C@@H](CCCN)C(=O)N[C@H](C(=O)NCC(N)=O)CSCC(=O)N[C@@H](Cc2ccc(O)cc2)C(=O)N(C)[C@@H](C)C(=O)N[C@@H](CC(N)=O)C(=O)N2CCC[C@H]2C(=O)N[C@@H](CN)C(=O)N[C@@H](CC(C)C)C(=O)N2C[C@H](c3ccccc3)C[C@H]2C(=O)N[C@@H](Cc2c[nH]c3ccccc23)C(=O)N[C@@H](CO)C(=O)N[C@@H](Cc2c[nH]c3ccccc23)C(=O)N1C [Example 14001] ({CH2CO}-Y[NMeA]NP[Dap]L[Pro(trans-4-Ph)]WSW[NMeNle][NMeNle][Orn]CG-NH2; thioether N-14)		0.385 to 6.74	0.158 to 4.71
CCCC[C@H]1C(=O)N(C)[C@@H](CCCC)C(=O)N[C@@H](CCCNC(=N)N)C(=O)N[C@H](C(=O)NCC(N)=O)CSCC(=O)N[C@@H](Cc2ccc(O)cc2)C(=O)N(C)[C@@H](C)C(=O)N[C@@H](CCN)C(=O)N2CCC[C@H]2C(=O)N[C@@H](C)C(=O)N[C@@H](CCC(=O)O)C(=O)N2C[C@H](O)C[C@H]2C(=O)N[C@@H](Cc2c[nH]c3ccccc23)C(=O)N[C@@H](CO)C(=O)N[C@@H](Cc2c[nH]c3ccccc23)C(=O)N1C [Example 1155] ({CH2CO}-Y[NMeA][Dab]PAE[Hyp]WSW[NMeNle][NMeNle]RCG-NH2; thioether N-14)	4.78 to 72.9	6.76 to 30.3	
CCCC[C@H]1C(=O)N[C@@H](C)C(=O)NC(C(=O)NCC(N)=O)CSCC(=O)N[C@@H](Cc2ccc(O)cc2)C(=O)N(C)[C@@H](C)C(=O)N[C@@H](CC(N)=O)C(=O)N2CCC[C@H]2C(=O)N[C@@H](CN)C(=O)N[C@@H](CC(C)C)C(=O)N2CCC[C@H]2C(=O)N[C@@H](Cc2c[nH]c3ccccc23)C(=O)N[C@@H](CO)C(=O)N[C@@H](Cc2csc3ccccc23)C(=O)N(C)[C@@H](CCSC)C(=O)N1C (stereo partly drawn) [Example 9094] ({CH2CO}-Y[NMeA]NP[Dap]LPWS[Bta][NMeM][NMeNle]A[ξC]G-NH2; thioether N-14)		0.385 to 6.74	4.78 to 72.9
